# Test results published in patent publication US20120135519A1, “INDUCED DERIVATION OF SPECIFIC ENDODERM FROM hPS CELL-DERIVED DEFINITIVE ENDODERM” (Cellartis AB, priority 2009, published 2012).
# “Also recorded” adds a separate entry of the source.
# B1: FGF7: fibroblast growth factor tested alone instead of FGF2 (protein, UniProt P21781 32-194, looked up)
# Fibroblast growth factor 7: CNDMTPEQMATNVNCSSPERHTRSYDYMEGGDIRVRRLFCRTQWYLRIDKRGKVKGTQEMKNNYNIMEIRTVAVGIVAIKGVESEFYLAMNKEGKLYAKKECNEDCNFKELILENHYNTYASAKWTHNGGEMFVALNQKGIPVRGKKTKKEQKTAHFLPMAIT
# B2: FGF4: fibroblast growth factor tested alone instead of FGF2 (protein, UniProt P08620 31-206, looked up)
# Fibroblast growth factor 4: APTAPNGTLEAELERRWESLVALSLARLPVAAQPKEAAVQSGAGDYLLGIKRLRRLYCNVGIGFHLQALPDGRIGGAHADTRDSLLELSPVERGVVSIFGVASRFFVAMSSKGKLYGSPFFTDECTFKEILLPNNYNAYESYKYPGMFIALSKNGKTKKGNRVSPTMKVTHFLPRL
# B3: FGF10: fibroblast growth factor tested alone instead of FGF2 (protein, UniProt O15520 38-208, looked up)
# Fibroblast growth factor 10: QALGQDMVSPEATNSSSSSFSSPSSAGRHVRSYNHLQGDVRWRKLFSFTKYFLKIEKNGKVSGTKKENCPYSILEITSVEIGVVAVKAINSNYYLAMNKKGKLYGSKEFNNDCKLKERIEENGYNTYASFNWQHNGRQMYVALNGKGAPRRGQKTRRKNTSAHFLPMVVHS
# How the values were obtained:
# Type in all cases: cell-based, human
# PDX1 expression = assay: FGF inhibition assays: PDX1 expression in FGF2-treated hPS cell-derived definitive endoderm; settings: for PDX1 expression: with FGF2 (64 ng/ml), real-time PCR, fold vs control at day eleven
# Method: FGF receptor inhibition assays were performed by adding SU5402 (Calbiochem; […]), LY294002 (Cell Signalling technology; 12.5 μM) and U1026 (Cell Signalling technology; 10 μM) to the medium following DE induction at day three. Control cultures were treated with equal volume of the diluent DMSO. Fresh medium supplemented with appropriate inhibitor was added daily. Two to three samples were taken from separate wells at different time points (day 9-12) for mRNA analysis for each independent experiment.
# (§1) Total RNA was extracted with GenElute Mammalian total RNA kit (Sigma-Aldrich). Total RNA concentrations were measured with the NanoDrop ND-1000 spectrophotometer (Nanodrop Technologies). Reverse transcription was performed with SuperScript III, according to the manufacturer's instructions, using 2.5 μM random hexamer and 2.5 μM oligo(dT) (Invitrogen). Real-time PCR measurements were performed on an ABI PRISM 7900HT Sequence Detector System (Applied Biosystems). 20 μl reactions containing 10 μl SuperMix-UDG w/ROX, 400 nM of each primer, 0.125× SYBR Green I (all reagents from Invitrogen) were used. Primer sequences are available as supplementary data (FIG. 6). Formation of expected PCR products was confirmed by agarose gel electrophoresis and melting curve analysis. Gene expression data was normalized against ACTB or RPL7 expression. […] Real-time PCR data analysis was performed as described (Bustin, 2000; Stahlberg et al., 2005).
# hPS cells = assay: Immunofluorescence stainings of hPS cells treated with different FGF2 concentrations
# Method: (§2) At day three, cells were washed with PBS and human FGF2 (Invitrogen) was added at different concentrations (0-256 ng/ml according to specifications in the results) in a KO-DMEM based medium containing 1% Penicillin-streptomycin, 1% Glutamax, 1% non-essential amino acids, 0.1mM beta-Mercaptoethanol and 12% knockout serum replacement (all reagents from Invitrogen). Medium was changed every day. Control cultures without FGF2 were grown in parallel and cell morphology was monitored daily. At each time point, two to four biological replicates were taken for each independent experiment. More specifically, each well was divided into 4-5 equal pieces depending on the number of time points that were analyzed.
# hPS cells were fixed in 4% paraformaldehyde for 15 minutes at room temperature and washed three times in PBS-T (0.1% Triton X-100 in PBS). Fixed cells were permeabilized with 0.5% Triton X-100 in PBS for 15 minutes and blocked in PBS-T supplemented with 5% normal donkey serum (Jackson lmmunoresearch) for 1 h at room temperature before they were incubated overnight at 4° C. with the following primary antibodies and dilutions: goat polyclonal antibody (pAb) anti-FOXA-2 (kind gift from Palle Serup; Santa Cruz Biotechnology; 1:200), Guinea Pig pAb anti-PDX-1 (Chris Wright; BetaCellBiologyConsortium; 1:1500), Goat anti-PDX-1 (Chris Wright; BetaCellBiologyConsortium; 1:1500), rabbit pAb anti-NKX6.1 (BetaCellBiologyConsortium; 20 1:4000), mouse anti-CDX-2 (kind gift from Jonathan Draper; Biogenex; 1:500), rabbit pAb anti-SOX-9 (Chemicon; 1:500), rabbit anti-HNF-6 (Santa Cruz Biotechnology; 1:400), mouse mAb-anti PH-3 (Cell Signaling technology; 1:50), rabbit pAb-anti MKi67 (Novocastra; 1:200), rabbit anti-S0X2 (kind gift from Palle Serup; Chemicon; 1:250), goat anti-albumin (Bethyl laboratories; 1:300). After overnight incubation cells were washed three times for 5 minutes in PBS; and incubated with corresponding fluorescent secondary antibodies (Alexa 488, Cy3 and 647; Jackson lmmunoresearch and Invitrogen; diluted according to the manufacturer's instructions) for 60 min in PBS-T supplemented with 5% serum at room temperature. Cell nuclei were visualized by 4′-6′diamidino-2-phenylindole (DAPI) (Sigma-Aldrich; 1:1000) incubation for 4 minutes. Immunofluorescence stainings were detected and analyzed by epifluorescence microscopy (Zeiss Axioplan 2).
# The percentage of PDX1 positive cells was calculated using the Imaris Imaging software (Bitplane). Ten randomly selected fields were chosen for each parameter. Using DAPI staining the software estimated the total area of cells. The area of the PDX1 positive cells was calculated in the same manner. Finally, the percentage of PDX1 positive cells was calculated by dividing the area of PDX1 positive cells by the DAPI positive area. Raw data from realtime PCR measurements was exported from SDS 2.2.1 and analyzed by Microsoft Excel graph pad. All data were statistically analyzed by multivariate comparison (one-way ANOVA) with Bonferroni correction. All values are depicted as mean±standard error of the mean (SEM) and considered significant if p<0.05.
# [1] = system: hPS cell derived definitive endoderm; assay: Real-time PCR marker expression in hPS cell-derived definitive endoderm treated with FGF2
# Method: hPS cells were seeded at a density of 12,000-24,000 cells/cm^2 and cultured until confluence. hPS cells were then differentiated into definitive endoderm as described previously (D'Amour et al., 2005). Briefly, cells were washed in PBS and treated with 100 ng/ml Activin A (R&D systems) and 25 ng/ml Wingless-type MMTV integration site family, member 3A (Wnt3a) in RPM! 1640 (GIBCO, Invitrogen) for three days in low serum (0-0.2% FBS).
# as §2, §1
# [2] = system: hPS-derived definitive endoderm; assay: Differentiation towards PDX-1 positive pancreatic endoderm with a single FGF instead of FGF2; settings: used alone instead of FGF2
# [3] = all FGF2 treated samples (4-256 ng/ml), day eleven, vs control
# [4] = higher FGF2 concentration, day eleven
# [5] = increasing FGF2 concentrations, day eleven, vs control (Activin A only)
molecule,measurement,setting,value
O=c1cc(N2CCOCC2)oc2c(-c3ccccc3)cccc12 [LY294002],PDX1 expression,PDX1 expression; inhibitor 12.5 μM,no significant effect
Cc1c[nH]c(/C=C2\C(=O)Nc3ccccc32)c1CCC(=O)O [SU5402],number of PDX1 positive cells,PDX1 expression; SU5402 with FGF2 (64 ng/ml),significantly decreased
same,PDX1 expression,PDX1 expression; inhibitor 10 μM,significantly reduced
N#CC(=C(/N)Sc1ccccc1N)/C(C#N)=C(/N)Sc1ccccc1N [U1026],PDX1 expression,PDX1 expression; inhibitor 10 μM,diminished; also recorded: significantly reduced
FGF2: human fibroblast growth factor 2 (Invitrogen) added to the culture medium,ALB+ cells (ALB stainings),hPS cells; 4 ng/ml FGF2,abundant
same,PDX1+ cells,hPS cells; 4 ng/ml FGF2,absent
same,number of PDX1+ cells (percentage of PDX1 positive cells),"hPS cells; 64 ng/ml FGF2, Imaris Imaging software, PDX1 area / DAPI area",15-20%
same,ALB+ cells (ALB stainings),hPS cells; 256 ng/ml FGF2,none
same,number of CDX2+ cells,hPS cells; 256 ng/ml FGF2,highest number
same,PDX1+ cells,"hPS cells; 32, 64 and 256 ng/ml FGF2",always present
same,PDX1 mRNA expression,"[1]; 4 ng/ml FGF2, day eleven, vs control (Activin A only)",remained unchanged
same,NKX6-1 mRNA expression,"[1]; 64 ng/ml FGF2, day eleven",peak expression
same,PDX1 mRNA expression,"[1]; 64 ng/ml FGF2, day eleven",peak expression
same,CDX2 mRNA expression,"[1]; 256 ng/ml FGF2, day eleven",upregulated
same,FGF10 mRNA expression,"[1]; 256 ng/ml FGF2, day eleven",peak expression
same,MNX1 mRNA expression,"[1]; 256 ng/ml FGF2, day eleven",upregulated
same,NKX2-1 mRNA expression,"[1]; 256 ng/ml FGF2, day eleven",peak expression
same,PTCH1 mRNA expression,"[1]; 256 ng/ml FGF2, day eleven",peak expression
same,SHH mRNA expression,"[1]; 256 ng/ml FGF2, day eleven",peak expression
same,SOX2 mRNA expression,"[1]; 256 ng/ml FGF2, day eleven",significantly upregulated
same,SPRY2 mRNA expression,"[1]; 256 ng/ml FGF2, day eleven",peak expression
same,CDX1 mRNA expression,"[1]; FGF2 range tested, day eleven",remained unaffected
same,NGN3 mRNA expression,[1]; [3],upregulated
same,SOX9 mRNA expression,[1]; [3],upregulated
same,CPA1 mRNA expression,"[1]; all samples, day eleven",remained unchanged
same,FOXA2 mRNA expression,"[1]; all samples, day eleven",remained unchanged
same,CDX4 expression,[1]; any FGF2 concentration,not detected
same,FGFR1 expression,[1]; [4],upregulated
same,FGFR2 expression,[1]; [4],downregulated
same,FGFR3 expression,[1]; [4],upregulated
same,FGFR4 expression,[1]; [4],downregulated
same,thyroglobulin (TG) mRNA expression,[1]; increasing FGF2 concentrations (data not shown),downregulated
same,ALB mRNA expression,[1]; [5],downregulated
same,HNF4A mRNA expression,[1]; [5],downregulated
same,ONECUT1 mRNA expression,[1]; [5],downregulated
same,HHEX expression,"[1]; tested FGF2 concentrations, non-dose-dependent",only moderately reduced
B1,induction of differentiation towards PDX-1 positive pancreatic endoderm,[2],"neither FGF4, FGF7 nor FGF10, when used alone instead of FGF2, is capable of inducing differentiation"
B2,induction of differentiation towards PDX-1 positive pancreatic endoderm,[2],"neither FGF4, FGF7 nor FGF10, when used alone instead of FGF2, is capable of inducing differentiation"
B3,induction of differentiation towards PDX-1 positive pancreatic endoderm,[2],"neither FGF4, FGF7 nor FGF10, when used alone instead of FGF2, is capable of inducing differentiation"
